Assay results from patent US11642413B2, “Compounds for degrading Tau protein aggregates and uses thereof” (Aprinoia Therapeutics Limited, priority 2019, dated 2023).

Molecular target: Tau aggregates in P301L-Tau-FL-GFP HEK293 cells (Homo sapiens (Human), UniProt P10636, P301L)
Test: Tau degradation assay (APNmAb005 ELISA-based Tau aggregation assay)
Format: cell-based
Conditions: 1 μM compound
Protocol: (A). Cell-based model of Tau inclusion formation: Six month old rTg4510 mouse brain lysates were used as the source of tau seeds, prepared as described in Example 26 above. P301L-Tau-FL-GFP HEK293 cells represent HEK293 cells express full-length human tau T40 (2N4R) carrying the P301L mutation with a GFP tag (P301L-Tau-FL-GFP). 1×10^6 of P301L-Tau-FL-GFP HEK293 cells were cultured on a 6-well plate in culture medium containing DMEM/F-12 (Gibco) supplemented with 10% fetal bovine serum (FBS) (Gibco), 1% Penicillin-Streptomycin (Gibco) and 0.5 mg/ml geneticin (Thermo Fisher Scientific) for 24 hours to reach 70-90% confluency, indicating the cells were ready for transfection. 50 μg of 6-month-old rTg4510 mouse brain lysate was diluted in 400 μL of serum free medium and mixed with 16 μL of lipofectamine 3000 reagent (Thermo Fisher Scientific) diluted in 400 μl of serum free medium. A solution mixture of rTg4510 brain lysate and lipofectamine 3000 was incubated at room temperature for 25 mins. The culture media were removed, and then a solution mixture of rTg4510 lysate and lipofectamine 3000 was added to the cells for transfection. The solution mixture was incubated at room temperature for five hours, followed by medium change to 10% fetal bovine serum (FBS). […]

Tau aggregates in P301L-Tau-FL-GFP HEK293 cells, sequence (P10636 other isoform, or with tags, fused parts or gaps P301L): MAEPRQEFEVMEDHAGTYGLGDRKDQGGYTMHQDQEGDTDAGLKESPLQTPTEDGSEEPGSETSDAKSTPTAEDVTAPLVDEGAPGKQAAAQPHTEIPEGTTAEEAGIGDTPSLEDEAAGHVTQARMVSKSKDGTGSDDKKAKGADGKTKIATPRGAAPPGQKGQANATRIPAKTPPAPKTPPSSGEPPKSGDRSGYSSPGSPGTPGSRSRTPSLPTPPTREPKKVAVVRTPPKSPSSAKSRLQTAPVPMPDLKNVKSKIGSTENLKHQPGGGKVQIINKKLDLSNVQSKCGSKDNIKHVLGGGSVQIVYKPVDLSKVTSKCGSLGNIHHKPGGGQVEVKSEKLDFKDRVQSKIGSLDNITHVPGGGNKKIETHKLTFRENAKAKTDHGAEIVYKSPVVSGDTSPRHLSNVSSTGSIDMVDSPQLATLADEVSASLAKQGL

## CN(C)c1ccc(-c2ccc(-c3cn4cccc(OCCOCCOc5ccc6c(c5)CN(C5CCC(=O)NC5=O)C6=O)c4n3)cc2)cn1 (stereo not shown) [Compound 162842]
  Optical Density (O.D.) 450 value decrease compared to vehicle: 20%
